Experimental data reported in patent publication US4126616A, “N-propylnorapomorphine diesters” (Hinshaw; William B., priority 1976, dated 1978).
Structures can show the parent of a compound that is named as a salt. Where two headings read alike, the source gives them in different places.

System: caudate lesioned mouse
Assay: caudate lesioned mouse test (anti-parkinson activity)
Assay type: in vivo
Conditions: for ED50: caudate lesioned mouse; for Molar Potency Ratio Claimed/Ref. Ester: claimed N-propyl ester vs corresponding N-methyl reference ester; for responders at 52 µmol/kg: dose 0.052 m. mole/kg
In short: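 Mice with unilateral caudate lesions, recovered ≥14 days, kept only if circling toward lesion in all three periods after apomorphine 1.7 mg/kg i.p. Test drugs given in 1% gum tragacanth; doses as mg/kg free base.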

[1] = Mus musculus, 0.5 h, read-out: No. Mice Affected/No. Mice Tested, 1/2 h
[2] = Mus musculus, 1 h, read-out: No. Mice Affected/No. Mice Tested, 1 h
[3] = Mus musculus, 2 h, read-out: No. Mice Affected/No. Mice Tested, 2 h
[4] = Mus musculus, 4 h, read-out: No. Mice Affected/No. Mice Tested, 4 h
[5] = Mus musculus, 6 h, read-out: No. Mice Affected/No. Mice Tested, 6 h
[6] = Mus musculus, read-out: No. Mice Affected/No. Mice Tested, Total

`CCCN1CCc2cccc3c2C1Cc1ccc(OC(=O)CC)c(OC(=O)CC)c1-3` (stereo not shown) [Ex. 1 (HCl), N-propylnorapomorphine dipropionate] showed an ED50 (ED50) of 0.0094 m. mole/kg, a responders at 6.5 µmol/kg [1] of 25% and a responders at 130 µmol/kg [1] of 75%. For the same compound, the responders at 260 µmol/kg [1] was 100%, the responders at 6.5 µmol/kg [2] was 25% and the responders at 130 µmol/kg [2] was 50%. It also gave a responders at 260 µmol/kg [2] of 100%, a responders at 6.5 µmol/kg [3] of 0% and a responders at 130 µmol/kg [3] of 0%. For the same compound, the responders at 260 µmol/kg [3] was 100%, the responders at 6.5 µmol/kg [4] was 0% and the responders at 130 µmol/kg [4] was 0%. It also gave a responders at 260 µmol/kg [4] of 100%, a responders at 6.5 µmol/kg [5] of 0% and a responders at 130 µmol/kg [5] of 0%. For the same compound, the responders at 260 µmol/kg [5] was 100%, the responders at 6.5 µmol/kg [6] was 25% and the responders at 130 µmol/kg [6] was 75%. For the same compound, the responders at 260 µmol/kg [6] was 100% and the “Molar Potency Ratio Claimed/Ref. Ester” value was 10.

With `CCCN1CCc2cccc3c2C1Cc1ccc(OC(=O)c2ccccc2)c(OC(=O)c2ccccc2)c1-3` (stereo not shown) [Ex. 1E, N-Propylnorapomorphine dibenzoate hydrochloride] the responders at 52 µmol/kg (Mus musculus, 0.5 h, 1/2 h post-drug, read-out: No. Mice Affected/No. Mice Tested, 1/2 h (converted)) was 0%, the responders at 52 µmol/kg (Mus musculus, 1 h post-drug, read-out: No. Mice Affected/No. Mice Tested, 1 h (converted)) was 0% and the responders at 52 µmol/kg (Mus musculus, 4 h post-drug, read-out: No. Mice Affected/No. Mice Tested, 4 h (converted)) was 66.7%. The responders at 52 µmol/kg (Mus musculus, 6 h post-drug, read-out: No. Mice Affected/No. Mice Tested, 6 h (converted)) was 33.3%, the responders at 52 µmol/kg (Mus musculus, 24 h post-drug, read-out: No. Mice Affected/No. Mice Tested, 24 h) was 0% and the responders at 52 µmol/kg (Mus musculus, total, read-out: No. Mice Affected/No. Mice Tested, Total (converted)) was 66.7%. The “Molar Potency Ratio Claimed/Ref. Ester” value was at least 8.

In the case of `CCCN1CCc2cccc3c2C1Cc1ccc(O)c(O)c1-3` (stereo not shown) [N-propylnorapomorphine], the ED50 (Mus musculus, po, read-out: ED50, on oral administration, oral) is reported as 3.2 µmol/kg.
